According to patent publication US20200289482A1, “CYSTIC FIBROSIS TRANSMEMBRANE CONDUCTANCE REGULATOR MODULATORS FOR TREATING AUTOSOMAL DOMINANT POLYCYSTIC KIDNEY DISEASE” (The Johns Hopkins University, priority 2017, published 2020):

What was measured:
GRP78 = test: Western blot of ER stress marker GRP78 in kidney tissue; assay type: in vivo, mouse; details: cyst induced pkd−/− mice, VX-809 30 mg/kg BW
Description: FIG. 11A. FIG. 11B, FIG. 11C, FIG. 11D, and FIG. 11E show expression of ER stress markers GRP78, ErO1, and GADD in Pkd1^−/− mice treated with VX-809. (FIG. 11A & FIG. 11D) Representative Western blot images of GRP78, ErO1, and GADD in lysates of kidney tissue from no cyst induced (ND), cyst induced with doxycycline (D) or cyst induced pkd−/− mice treated with VX-809 (D+VX-809) 30 mg/kg BW. (FIG. 11B, FIG. 11C and FIG. 11E) Columns represent averages±standard errors of GRP78, ErO1, and GADD153 expression. Data were analyzed by non-parametric t-test. n=4 for each treated and control groups. Black lines between lanes represent representative experiments from the same gel but loaded in different lanes. **P<0.01, ***P<0.001;
Given that VX-809 alters an ensemble of Hsps, it was evaluated whether VX-809 alters proteins associated with ER stress. To address this question, the levels of three ER stress-associated proteins were measured, 78-kDa glucose-regulated protein (GRP78), ER oxidoreductin 1 (Ero1) and DNA damage-inducible protein 3 (GADD153), also known as C/EBP homologous protein (CHOP) (37). The results are depicted in FIG. 11 show no changes in GRP78 or Ero1 in response to VX-809.

[1] = system: kidneys of Pkd1^fl/fl; Pax8^rtTA; TetO-cre mice; test: Ki67 staining of kidney sections (proliferation); assay type: in vivo, mouse; details: VX-809 30 mg/kg to mice vs DMSO-treated mice; PN21 kidney sections
From the text: FIG. 3A, FIG. 3B, FIG. 3C, and FIG. 3D show cell proliferation is reduced by VX-809. (FIG. 3A-FIG. 3B) Proliferation in kidneys of Pkd1^fl/fl; Pax8^rtTA; TetO-cre mice. Representative images of Ki67 (a cellular marker for proliferation) staining of PN21 kidney sections from DMSO- and VX-809-treated mice. Arrows indicate Ki67-positive cells. Pictures were acquired with a Zeiss microscope equipped with 20× objective. (FIG. 3C) Summary data for Ki67-positive cells. Columns represent averages±standard errors of DMSO (vehicle)-treated (n=3) and VX-809-treated (n=3) mice. Statistical analysis was performed using a two-tailed Student's t test. (FIG. 3D) Proliferation in PN cells. PN cells were treated with VX-809 or DMSO). The bromodeoxyuridine (BrdU) concentration in the cells was measured by using a BrdU cell proliferation assay kit (Millipore Sigma #2750) according to the manufacturer's protocol. Columns represent averages±SEs of the OD of BrdU at 450/550 […]. Data were analyzed using Student's t-test, with n=5-7. Methods were described previously (62). […]; **P<0.01;
A hallmark of the cysts in ADPKD is an increase in proliferation in response to cAMP (23). Therefore, it was determined whether VX-809 would affect proliferation.

[2] = system: Pkd1^fl/fl; Pax8^rtTA; TetO-cre mice; test: Cyst growth and renal function in Pkd1 knockout mice treated with VX-809; assay type: in vivo, mouse
Description: (FIG. 1A) Representative images of postnatal day (PND) 21 kidney sections from DMSO- and VX-809-treated mice. Significant reductions occurred in (FIG. 1B) cyst index, (FIG. 1C) kidney weight, and (FIG. 1D) kidney-to-body weight ratio. […] Methods: The total kidney area and total cystic area were measured with ImageJ (provided by NIH). Cystic index=100× (total cystic area/total kidney area) and is expressed as a percentage. Columns represent means±standard error (SEM) for DMSO (vehicle)-treated (n=4-5) and VX-809 mice. *P<0.05; **P<0.01 (for all graphs). Statistical analysis was performed using an unpaired two-tailed Student's t-test;
When treated with doxycycline, these mice express Cre, causing knockout of PC1 (18). […] The dosage of VX-809 injected was lower than the human pediatric dose, which is 500 mg of Lumacaftor per day; the adult dose is 800 mg/day.
Mouse strain and treatment. Pkd1^fl/fl; Pax8^rtTA; TetO-cre mice on a C57BL/6 background (61) were provided by the Baltimore PKD Center. Mice of both sexes were used in this study. Mice were injected IP with doxycycline (Sigma, # D9891) ([…]) on postnatal day 11 (PND11), PND12, and PND13 to produce very rapid and aggressive cyst growth (18,19). On PND21, the mice were euthanized.

PC2 = test: Confocal microscopy localization of PC2; assay type: cell-based; details: VX-809 treated vs control cells; ER, Golgi and PM markers
From the text: FIG. 17A and FIG. 17B show images of confocal microscopy localization studies of PC2 and localization markers in control and treated cells (FIG. 17A) and graphs showing Pearson's correlation coefficient for PC2 and localization markers in control and VX-809 treated cells (FIG. 17B).
The localization of PC2 and CFTR in control cells was compared to the localization of PC2 and CFTR localization in VX-809 treated cells.

[3] = VX-809 30 mg/kg IP daily PND10 to PND20 vs DMSO-treated mice
[4] = VX-809 30 mg/kg IP daily PND10 to PND20 vs control mice

Question: lumacaftor [VX-809] was tested. Which GRP78 expression (GRP78) did it give?
Answer: Its GRP78 expression is “no changes”.

Question: What about the “cell proliferation (Ki67-positive cells)” value [1] of the same substance?
Answer: The value was “significantly inhibit cell proliferation”.

Question: What about the overall body weight ([2]; VX-809 30 mg/kg IP daily PND10 to PND20, treated vs untreated groups) of the same substance?
Answer: Its overall body weight is “no difference in overall body weight”.

Question: What about the “blood urea nitrogen (BUN)” value [2, 3] of the same substance?
Answer: The value was “lowered blood urea nitrogen (BUN)”.

Question: And the creatinine [2, 3]?
Answer: The creatinine was “lowered”.

Question: And the “less cyst growth (cyst index)” value ([2]; VX-809 30 mg/kg IP daily PND10 to PND20 vs DMSO, doxycycline-induced cysts, PND21)?
Answer: Its value is about 60.4%.

Question: And the Kidney weight [2, 4]?
Answer: The Kidney weight was “lower than those of the control mice”.

Question: What about the kidney-to-body weight ratio [2, 4] of the same substance?
Answer: Its kidney-to-body weight ratio is “lower than those of the control mice”.

Question: What about the “localization of PC2” value (PC2) of the same substance?
Answer: Its value is “statistically significant move of PC2 from the ER to Golgi”.
